According to patent US7507748B2, “Substituted aryl-amine derivatives and methods of use” (Amgen Inc., priority 2004, dated 2009):

System: Human Umbilical Vein Endothelial cells
Experiment: VEGF-stimulated HUVEC proliferation assay
Format: cell-based
Conditions: 72 h, CyQuant, read-out: inhibited VEGF-stimulated HUVEC proliferation at a level
Experimental: Human Umbilical Vein Endothelial cells are purchased from Clonetics, Inc., as cryopreserved cells harvested from a pool of donors. These cells, at passage 1, are thawed and expanded in EBM-2 complete medium, until passage 2 or 3. The cells are trypsinized, washed in DMEM+10% FBS+antibiotics, and spun at 1000 rpm for 10 min. Prior to centrifugation of the cells, a small amount is collected for a cell count. After centrifugation, the medium is discarded, and the cells are resuspended in the appropriate volume of DMEM+10% FBS+antibiotics to achieve a concentration of 3×10^5 cells/mL. Another cell count is performed to confirm the cell concentration. The cells are diluted to 3×10^4 cells/mL in DMEM+10% FBS+antibiotics, and 100 μL of cells are added to a 96-well plate. The cells are incubated at 37° C. for 22 h.
Prior to the completion of the incubation period, compound dilutions are prepared. Five-point, five-fold serial dilutions are prepared in DMSO, at concentrations 400-fold greater than the final concentrations desired. 2.5 μL of each compound dilution are diluted further in a total of 1 mL DMEM+10% FBS+antibiotics (400× dilution). Medium containing 0.25% DMSO is also prepared for the 0 μM compound sample. At the 22-hour timepoint, the medium is removed from the cells, and 100 μL of each compound dilution is added. The cells are incubated at 37° C. for 2-3 h.
During the compound pre-incubation period, the growth factors are diluted to the appropriate concentrations. Solutions of DMEM+10% FBS+antibiotics, containing either VEGF or bFGF at the following concentrations: 50, 10, 2, 0.4, 0.08, and 0 ng/mL are prepared. For the compound-treated cells, solutions of VEGF at 550 ng/mL or bFGF at 220 ng/mL for 50 ng/mL or 20 ng/mL final concentrations, respectively, are prepared since 10 μL of each will be added to the cells (110 μL final volume). At the appropriate time after adding the compounds, the growth factors are added. VEGF is added to one set of plates, while bFGF is added to another set of plates. For the growth factor control curves, the media on wells B4-G6 of plates 1 and 2 are replaced with media containing VEGF or bFGF at the varying concentrations (50-0 ng/mL). The cells are incubated at 37° C. for an additional 72 h.
At the completion of the 72 h incubation period, the medium is removed, and the cells are washed twice with PBS. After the second wash with PBS, the plates are tapped gently to remove excess PBS, and the cells are placed at −70° C. for at least 30 min. The cells are thawed and analyzed using the CyQuant fluorescent dye (Molecular Probes C-7026), following the manufacturer's recommendations. The plates are read on a Victor/Wallac 1420 workstation at 485 nm/530 nm (excitation/emission). Raw data are collected and analyzed using a 4-parameter fit equation in XLFit. IC50 values are then determined.

| Structure (SMILES) | IC50 |
| --- | --- |
| CCOC(=O)C(C)c1ccc(NC(=O)c2cccnc2Nc2ccc3ccncc3c2)cc1 (racemic) [Example 52, 2(R,S)-(4-{[2-(Isoquinolin-7-ylamino)-pyridine-3-carbonyl]-amino}-phenyl)-propionic acid ethyl ester] | < 1 µM |
| CC(C(=O)O)c1ccc(NC(=O)c2cccnc2Nc2ccc3ccncc3c2)cc1 (racemic) [Example 53, 2(R,S)-(4-{[2-(Isoquinolin-7-ylamino)-pyridine-3-carbonyl]-amino}-phenyl)-propionic acid] | < 1 µM |
| CC1(C)CN(C(=O)[C@H]2CCCO2)Cc2cc(NC(=O)c3cccnc3Nc3ccc4ccncc4c3)ccc21 (stereo in doubt) [Example 74, N-[4,4-Dimethyl-2-(tetrahydro-furan-2-carbonyl)-1,2,3,4-tetrahydro-isoquinolin-7-yl]-2-(isoquinolin-7-ylamino)-nicotinamide] | < 1 µM |
| COC(c1ccc(NC(=O)c2cccnc2Nc2ccc3ccncc3c2)cc1)(C(F)(F)F)C(F)(F)F [Example 10, 2-(Isoquinolin-7-ylamino)-N-[4-(2,2,2-trifluoro-1-methoxy-1-trifluoromethyl-ethyl)-phenyl]-nicotinamide] | < 1 µM |
| O=C(Nc1ccc(C(F)(F)C(F)(F)F)cc1)c1cccnc1Nc1ccc2ccncc2c1 [Example 11, 2-(Isoquinolin-7-ylamino)-N-(4-pentafluoroethyl-phenyl)-nicotinamide] | < 1 µM |
| O=C(Nc1ccc(C(F)(F)F)cc1)c1cccnc1Nc1ccc2ccncc2c1 [Example 12, 2-(Isoquinolin-7-ylamino)-N-(4-trifluoromethyl-phenyl)-nicotinamide] | < 1 µM |
| CC(=O)N1Cc2cc(NC(=O)c3cccnc3Nc3ccc4ccncc4c3)ccc2C(C)(C)C1 [Example 13, N-(2-Acetyl-4,4-dimethyl-1,2,3,4-tetrahydro-isoquinolin-7-yl)-2-(isoquinolin-7-ylamino)-nicotinamide] | < 1 µM |
| CC(C)(C)c1ccc(NC(=O)c2cccnc2Nc2ccc3ccncc3c2)cc1 [Example 14, N-(4-tert-Butyl-phenyl)-2-(isoquinolin-7-ylamino)-nicotinamide] | < 1 µM |
| CC(C)(C)c1cc(NC(=O)c2cccnc2Nc2ccc3ccncc3c2)no1 [Example 15, N-(5-tert-Butyl-isoxazol-3-yl)-2-(isoquinolin-7-ylamino)-nicotinamide] | < 1 µM |
| CNc1ncnc2ccc(Nc3ncccc3C(=O)Nc3ccc4c(c3)CN(C(C)=O)CC4(C)C)cc12 [Example 16, N-(2-Acetyl-4,4-dimethyl-1,2,3,4-tetrahydro-isoquinolin-7-yl)-2-(4-methylamino-quinazolin-6-ylamino)-nicotinamide] | < 1 µM |
| CC1(C)CNCc2cc(NC(=O)c3cccnc3Nc3ccc4c(c3)OC(F)(F)O4)ccc21 [Example 22, 2-(2,2-Difluoro-benzo[1,3]dioxol-5-ylamino)-N-(4,4-dimethyl-1,2,3,4-tetrahydro-isoquinolin-7-yl)-nicotinamide] | < 1 µM |
| Cc1nc2cc(NC(=O)c3cccnc3Nc3ccc4[nH]nnc4c3)ccc2s1 [Example 23, 2-(1H-Benzotriazol-5-ylamino)-N-(2-methyl-benzothiazol-5-yl)-nicotinamide] | < 1 µM |
| CC1(C)CC(=O)Nc2cc(NC(=O)c3cccnc3Nc3ccc4[nH]nnc4c3)ccc21 [Example 24, 2-(1H-1,2,3-benzotriazol-5-ylamino)-N-(4,4-dimethyl-2-oxo-1,2,3,4-tetrahydroquinolin-7-yl)nicotinamide] | < 1 µM |
| CC(C)(C)c1cc(NC(=O)c2cccnc2Nc2ccc3[nH]nnc3c2)no1 [Example 25, 2-(1H-benzo[d][1,2,3]triazol-5-ylamino)-N-(5-tert-butylisoxazol-3-yl)nicotinamide] | < 1 µM |
| CC(C)(C)c1ccc(NC(=O)c2ccccc2Nc2ccc3ccncc3c2)cc1 [Example 27, N-(4-tert-Butyl-phenyl)-2-(isoquinolin-7-ylamino)-benzamide] | < 1 µM |
| CC1(C)CCNc2cc(NC(=O)c3ccccc3Nc3ccc4ccncc4c3)ccc21 [Example 28, N-(4,4-Dimethyl-1,2,3,4-tetrahydro-quinolin-7-yl)-2-(isoquinolin-7-ylamino)-benzamide] | < 1 µM |

| Structure (SMILES) | IC50 |
| --- | --- |
| CC(C)(C)c1ccc(NC(=O)c2cccc(F)c2Nc2ccc3ccncc3c2)cc1 [Example 29, N-(4-tert-Butyl-phenyl)-3-fluoro-2-(isoquinolin-7-ylamino)-benzamide] | < 1 µM |
| CC1(C)CCNc2cc(NC(=O)c3ccccc3Nc3ccc4ncncc4c3)ccc21 [Example 30, N-(4,4-Dimethyl-1,2,3,4-tetrahydro-quinolin-7-yl)-2-(quinazolin-6-ylamino)-benzamide] | < 1 µM |
| CC(=O)N1CC(C)(C)c2ccc(NC(=O)c3cccnc3Nc3ccc4ccncc4c3)cc21 [Example 31, N-(1-Acetyl-3,3-dimethyl-2,3-dihydro-1H-indol-6-yl)-2-(isoquinolin-7-ylamino)-nicotinamide] | < 1 µM |
| CC1(C)CNc2cc(NC(=O)c3cccnc3Nc3ccc4ccncc4c3)ccc21 [Example 32, N-(3,3-Dimethyl-2,3-dihydro-1H-indol-6-yl)-2-(isoquinolin-7-ylamino)-nicotinamide] | < 1 µM |
| COc1cc(NC(=O)c2cccnc2Nc2ccc3ccncc3c2)cc(C(F)(F)F)c1 [Example 33, 2-(Isoquinolin-7-ylamino)-N-(3-methoxy-5-trifluoromethyl-phenyl)-nicotinamide] | < 1 µM |
| O=C(Nc1ccc(Cl)c(C(F)(F)F)c1)c1cccnc1Nc1ccc2ccncc2c1 [Example 34, N-(4-Chloro-3-trifluoromethyl-phenyl)-2-(isoquinolin-7-ylamino)-nicotinamide] | < 1 µM |
| CC(C)(C)c1ccc(NC(=O)c2cccnc2Nc2cnc3ccncc3c2)cc1 [Example 35, N-(4-tert-Butyl-phenyl)-2-([1,6]naphthyridin-3-ylamino)-nicotinamide] | < 1 µM |
| CC(C)(C)OC(=O)N1Cc2cc(NC(=O)c3cccnc3Nc3cnc4ccncc4c3)ccc2C(C)(C)C1 [Example 36, 4,4-Dimethyl-7-{[2-([1,6]naphthyridin-3-ylamino)-pyridine-3-carbonyl]-amino}-3,4-dihydro-1H-isoquinoline-2-carboxylic acid tert butyl ester] | < 1 µM |
| CC1(C)CNCc2cc(NC(=O)c3cccnc3Nc3cnc4ccncc4c3)ccc21 [Example 37, N-(4,4-Dimethyl-1,2,3,4-tetrahydro-isoquinolin-7-yl)-2-([1,6]naphthyridin-3-ylamino)-nicotinamide] | < 1 µM |
| O=C(Nc1ccc(C(O)(C(F)(F)F)C(F)(F)F)cc1)c1cccnc1Nc1cnc2ccncc2c1 [Example 38, 2-([1,6]Naphthyridin-3-ylamino)-N-[4-(2,2,2-trifluoro-1-hydroxy-1-trifluoromethyl-ethyl)-phenyl]-nicotinamide] | < 1 µM |
| Cc1nc2cc(NC(=O)c3cccnc3Nc3ccc4ccncc4c3)ccc2s1 [Example 39, 2-(isoquinolin-7-ylamino)-N-(2-methyl-1,3-benzothiazol-5-yl)nicotinamide] | < 1 µM |
| O=C(Nc1cc(OCC2CCCO2)cc(C(F)(F)F)c1)c1cccnc1Nc1ccc2ccncc2c1 (centres unmarked) [Example 40] | < 1 µM |
| CC1(C)CNCc2cc(NC(=O)c3cccnc3Nc3ccc4ccncc4c3)ccc21 [Example 41, N-(4,4-Dimethyl-1,2,3,4-tetrahydro-isoquinolin-7-yl)-2-(isoquinolin-7-ylamino)-nicotinamide] | < 1 µM |
| CC(C)(C)c1ccc(NC(=O)c2cccnc2Nc2ccc3ccncc3c2)cn1 [Example 42, N-(6-tert-Butyl-pyridin-3-yl)-2-(isoquinolin-7-ylamino)-nicotinamide] | < 1 µM |
| O=C(Nc1ccc(C(O)(C(F)(F)F)C(F)(F)F)cc1)c1cccnc1Nc1ccc2ccncc2c1 [Example 43, 2-(Isoquinolin-7-ylamino)-N-[4-(2,2,2-trifluoro-1-hydroxy-1-trifluoromethyl-ethyl)-phenyl]-nicotinamide] | < 1 µM |
| CC(C)c1ccc(NC(=O)c2cccnc2Nc2ccc3ccncc3c2)cc1 [Example 44, N-(4-Isopropyl-phenyl)-2-(isoquinolin-7-ylamino)-nicotinamide] | < 1 µM |
